Data as given in patent US10487117B2, “Antimicrobial peptide for nosocomial infections” (priority 2015, dated 2019).
Several values for one entry are separate records, joined by “and”; a condition that tells them apart may be missing. Equal entries are not always repeated. Residues, ends and D or L forms follow the SMILES beside them.

What was measured:
planktonic P. aeruginosa [1] = format: cell-based, Pseudomonas aeruginosa; conditions: planktonic, 4 h
Procedure: The microbial cell viability was then assayed using the BacTiter-Glo™ luminescent kit. […] No cell reduction was detected for the peptide GL-13 even for the maximum concentration assayed (50 μM).
(§1) Bacterial viability was assayed using the BacTiter-Glo™ microbial cell viability kit. Briefly, protein/peptides were dissolved in 10 mM sodium phosphate, 0.1M buffer, pH 7.5, serially diluted from 50 to 0.1 μM and tested in a 96-well microtiter plate containing P. aeruginosa planktonic (OD600˜0.2) or 24 h formed biofilm for 4 h at 37° C. Fifty microliters of BacTiter-Glo™ reagent was added to each well according to the manufacturer's instructions and incubated at room temperature for 15 min. Luminescence was read on a Victor3 plate reader with a 3-s integration time. Fifty percent (ED50) and total inhibitory concentrations were calculated by fitting the data to a dose-response curve.

planktonic P. aeruginosa [2] = experiment: Minimum agglutination concentration (MAC) assay; format: cell-based, Pseudomonas aeruginosa; conditions: 1 h at room temperature, mean ± SEM
Procedure: Bacterial agglutination of RNase 3 is important for the antimicrobial activity of the protein. Therefore, the peptide capability to agglutinate P. aeruginosa cells was assayed by the minimum agglutination concentration assay (MAC) (Table 3).
Bacterial cells were grown in LB at 37° C. to an OD600=0.2, centrifuged at 5000×g for 2 min and resuspended in 10 mM Tris-HCl buffer, 0.1 M NaCl, pH 7.5. An aliquot of 100 μl of the bacterial suspension was treated with increasing protein/peptide concentrations (from 0.01 to 50 μM) and incubated at room temperature for 1 h. The aggregation behavior was observed by visual inspection and the agglutinating activity is expressed as the minimum agglutinating concentration of the sample tested, as previously described (Torrent M. et al. 2012).

planktonic P. aeruginosa [3] = experiment: SYTOX Green membrane permeabilization assay, planktonic; format: cell-based, Pseudomonas aeruginosa; conditions: 10% Triton X-100 as maximum reference
Procedure: Further insight into the membrane-permeabilizing effect of the selected AMPs against P. aeruginosa was evaluated by the Sytox Green assay. Local membrane disturbances allow the cell uptake of the fluorescent Sytox Green dye that subsequently stains the cell nucleic acids; the fluorescence increase is registered to monitor the cell membrane permeabilization. Therefore, the half permeabilization action (ED50) was measured, and the total permeabilization activity expressed as a percentage (Table 5). […] On the other hand, WY-12 and CA-M required a 6- to 7-fold greater concentration than RNase 3 to produce half of their permeabilizing effect.
(§2) Membrane permeabilization was followed using the method SYTOX Green Fluorescence membrane permeabilization assay. In the planktonic assay, bacterial cells were grown at 37° C. to an OD600=0.2, centrifuged at 5000×g for 5 min, and resuspended in 1×PBS to an OD600=0.2. An aliquot of 200 μl was then transferred to a microtiter plate. For biofilm assay, 24 h formed P. aeruginosa biofilm in a 96-well microtiter plate were washed three times with sterile PBS. SYTOX Green was added to a final concentration of 1 μM and incubated 15 min in darkness. Changes in the fluorescence were continuously recorded after addition of a serially diluted protein/peptides from 50 to 0.1 μM in a Victor3 plate reader. The peptide concentration required to achieve half of total and total membrane permeabilization achieved after 40 min was estimated from nonlinear regression analysis as previously described (Pulido D. et al. Antimicrob Agents Chemother 2013). A maximum reference value was taken for Triton X-100 at 10%.

[4] = system: pre-established P. aeruginosa biofilm; experiment: Biofilm eradication assay, crystal violet staining; format: cell-based, Pseudomonas aeruginosa
Procedure: Following, the biofilm eradication activity was determined (FIG. 1 and Table 6). […] Moreover, the biofilm eradication activity of all the tested reference peptides was well above the maximum concentration tested (50 μM), except for RN3(5-17P22-36) which was able to eradicate the biofilm close to 50 μM.
(§3) Biofilm formation assay was modified from the previously described protocol (Huedo P. et al. 2014). Briefly, overnight cultures of P. aeruginosa were centrifuged at 5000×g for 5 min, washed and adjusted to an OD600=0.1 in tryptic soy medium (TSB). Two hundred microliters of the bacterial suspension were dispensed in each well of a polystyrene 96-well microtiter plate (Greiner Bio-one, France). The plate was incubated at 37° C. on an orbital shaker (30 rpm). The media was exchanged with fresh pre-warmed TSB after 4 h, in order to remove the non-attached bacteria. After 24 h incubation, the formation of biofilm was then evaluated using the crystal violet staining technique (Stepanovic S. et al. 2000). Briefly, the plates were washed three times with PBS, fixed at 60° C. for 1 h, and stained for 15 min with 200 μl of 0.1% crystal violet. After the dye was discarded, plates were rinsed in PBS and allowed to dry for 30 min at 37° C. Crystal violet was dissolved in 250 μl of 95% ethanol for 15 min, and the OD570 of the extracted dye was measured using a Victor3 plate reader (Perkin-Elmer, Waltham, Mass.).
Biofilms were grown as above. Twenty-four hour formed P. aeruginosa biofilm was washed three times with sterile PBS, and rinsed with 10 mM sodium phosphate buffer pH 7.5. Each well was treated with increasing protein/peptide concentrations (from 0.01 to 50 μM) and incubated at 37° C. for 4 h. The biofilm eradication was then evaluated using the crystal violet staining technique (Stepanovic S. et al. 2000). The ability of the antimicrobial peptides to disperse and reduce the biofilm mass of preformed biofilms was calculated. The peptide concentration required to achieve total preformed biofilm eradication after 4 h incubation time was estimated. A maximum reference value was taken for Triton X-100 at 10%. The minimum biofilm eradication concentration (MBEC), defined as the protein/peptide concentration where the 99.9% of the biofilm mass is eradicated was estimated.

[5] = Biofilm cell mortality, BacTiter-Glo luminescent assay; format: cell-based, Pseudomonas aeruginosa; conditions: 24 h formed biofilm; 4 h at 37° C.; 10% Triton X-100 as maximum reference; N.D. = not detected at 50 μM; read-out: Biofilm cell mortality (%max)
Procedure: as §1
As a first approach, the biofilm cell viability was monitored using the BacTiter-Glo™ luminescent assay. Therefore, the antimicrobial action of the studied AMPs was determined on already established P. aeruginosa biolfilms (FIG. 1 and Table 6). […] However, for all the active peptides, the concentrations needed to produce an equivalent effect in biofilms were between 2 to 10 times higher than in planktonic cultures. […] At the same time, we applied the crystal violet technique to assess the peptide ability to disperse pre-established P. aeruginosa biofilms.
as §3

[6] = system: established P. aeruginosa biofilms; experiment: DiSC3(5) membrane depolarization assay on biofilm; format: cell-based, Pseudomonas aeruginosa; conditions: maximum percentage at final incubation time, 10% Triton X-100 reference
Procedure: Membrane depolarization was followed using the method described earlier (Torrent M. et al. 2008). Briefly, bacterial cells were grown at 37° C. to an OD600=0.2, centrifuged at 5000×g for 7 min, washed with 5 mM Hepes at pH 7.2 containing 20 mM glucose, and resuspended in 5 mM Hepes-KOH, 20 mM glucose, and 100 mM KCl at pH 7.2 to an OD600=0.05 and 200 μl were transferred to a microtiter plate for planktonic assays. For biofilm assay, 24 h formed P. aeruginosa biofilm in a 96-well microtiter plate were washed three times with sterile PBS. Afterwards P. aeruginosa biofilms were washed with 5 mM Hepes at pH 7.2 containing 20 mM glucose, and rinsed in 5 mM Hepes-KOH, 20 mM glucose, and 100 mM KCl at pH 7.2. In both cases, DiSC3(5) was added to a final concentration of 0.4 μM and changes in the fluorescence were continuously recorded after addition of peptides at 10 μM in a Victor3 plate reader. A maximum reference value for total depolarization is calculated for Triton X-100 at 10%. Alternatively, changes in the fluorescence were continuously recorded after addition of a serially diluted protein/peptides from 50 to 0.1 μM. The peptide concentration required to achieve half of total and total membrane depolarization after 40 min incubation time was estimated from nonlinear regression analysis as previously described (Torrent M. et al. 2010)
(§4) Thereupon, the antimicrobial mechanism of action of the RNase 3 derived peptide on P. aeruginosa biofilms was further characterized with the depolarization and permeabilization assays. As applied for the P. aeruginosa planktonic culture, the fluorescent DisC3(5) assay was also used here in order to monitor the depolarization activity of the studied protein and peptides against established biofilms. Therefore, we have measured the half depolarization action (ED50), and the total depolarization activity expressed as a percentage (Table 7). […] Similar results were obtained for the Sytox Green permeabilization assay, where the total permeabilization effect was hindered for all the AMPs tested, and between two to ten times higher concentrations were required to achieve half of the biofilm cell permeabilizing effect in comparison to the planktonic cells.

[7] = system: established P. aeruginosa biofilms; experiment: SYTOX Green membrane permeabilization assay on biofilm; format: cell-based, Pseudomonas aeruginosa; conditions: maximum percentage at final incubation time, 10% Triton X-100 reference
Procedure: as §2, §4

[8] = system: biofilm-producing microorganism; experiment: Antimicrobial and antibiofilm activities of peptides from the design process; format: cell-based; conditions: peptide from the design process
Description: Furthermore, even though the peptide has been designed with the RNAse 3 sequence as starting point, the peptide has surprising advantages in respect of the RNase 3 due to the specific deletion and selection of the amino acids conforming the peptide amino acid. […] This is the case of the peptide ECP(7-13)(32-36) with sequence SEQ ID NO: 7.

Compound | IC50 (planktonic P. aeruginosa [1]) | MAC (minimum agglutinating activity) (planktonic P. aeruginosa [2]) | Permeabilization %max (planktonic P. aeruginosa [3]) | Biofilm eradication (%max) ([4]; 24 h formed biofilm, 4 h at 37° C., 10% Triton X-100 as maximum reference, listed as the peptide of the invention) | biofilm eradication concentration (MBEC) ([4]; total eradication of preformed biofilm, 4 h, max tested 50 μM) | mortality [5] | Depolarization Mean % ± SEM [6] | Permeabilization Mean % ± SEM [7] | antimicrobial and antibiofilm activities [8]
CC[C@H](C)[C@H](NC(=O)[C@H](C)NC(=O)[C@H](CCCNC(=N)N)NC(=O)[C@H](CCSC)NC(=O)[C@H](C)NC(=O)[C@@H](NC(=O)[C@@H](NC(=O)[C@H](CCCNC(=N)N)NC(=O)[C@@H]1CCCN1C(=O)[C@H](CO)NC(=O)[C@@H](NC(=O)[C@H](Cc1c[nH]cn1)NC(=O)[C@H](CCC(N)=O)NC(=O)[C@@H](NC(=O)[C@H](C)NC(=O)[C@H](Cc1ccccc1)NC(=O)[C@H](Cc1c[nH]c2ccccc12)NC(=O)[C@H](CCC(N)=O)NC(=O)[C@H](C)NC(=O)[C@H](CCCNC(=N)N)NC(=O)[C@@H](NC(=O)[C@H](Cc1ccccc1)NC(=O)[C@@H]1CCCN1C(=O)[C@@H](N)CCCNC(=N)N)[C@@H](C)O)[C@@H](C)CC)[C@@H](C)CC)[C@@H](C)O)[C@@H](C)CC)C(=O)N[C@@H](CC(N)=O)C(=O)N[C@@H](CC(N)=O)C(=O)N[C@@H](Cc1ccc(O)cc1)C(=O)N[C@@H](CCCNC(=N)N)C(=O)N[C@@H](Cc1c[nH]c2ccccc12)C(=O)N[C@@H](CCCNC(=N)N)C(N)=O [RN3(5-17P22-36)] (H-RPFTRAQWFAIQHISPRTIAMRAINNYRWR-NH2; N-terminus assumed) | 1250 ± 100 nM | 1.5 µM and 1.50 ± 0.08 µM | 63.63 ± 1.42% | totally disperse the cell community layer | ~50 µM | 96.4 ± 2.41% | 73.51 ± 1.94% | 64.26 ± 5.44% | 
ECP(7-13)(32-36): design-process peptide with sequence SEQ ID NO: 7, lacking the antimicrobial and antibiofilm activities (RAQWFAINYRWR; peptide ECP(7-13)(32-36)) |  |  |  |  |  |  |  |  | did not display the antimicrobial and antibiofilm activities
